Test results as given in US9345740B2, “IAP antagonists” (BRISTOL-MYERS SQUIBB COMPANY, priority 2012, dated 2016).

Tests used:
Type in all cases: binding
[1] = target: XIAP BIR3 (His-BIR3 (241-356, XIAP)) (Homo sapiens (Human), UniProt P98170)
[2] = target: XIAP BIR2-3 (His-BIR2-3 (125-356, C202A/C213G, XIAP)) (Homo sapiens (Human), UniProt P98170, C202A/C213G)
[3] = target: XIAP BIR3 (N-His-Tb-BIR3(241-356, XIAP)) (Homo sapiens (Human), UniProt P98170)
[4] = target: XIAP BIR2 (His-BIR2 (124-240/C202A/C213G)) (Homo sapiens (Human), UniProt P98170, C202A/C213G); experiment: XIAP-BIR2/SMAC Peptide AlphaScreen Assay; details: footnote *: XIAP BIR2 alpha screen (printed in the BIR2-3 column)
Description: C. XIAP-BIR2/SMAC Peptide AlphaScreen Assay
Assays were performed in white, flat-bottom, 384-well ProxiPlates (Perkin Elmer). The final assay volume was 10 μL prepared from additions of His-BIR2 (124-240/C202A/C213G), Biotinylated SMAC peptide, and test compounds in assay buffer consisting of 25 mM Hepes, 100 mM NaCl, 0.1% BSA, and 5 mM CaCl2. The reaction was incubated at room temperature for 60 minutes. After 60 minutes, 2.5 μL of Alphascreen detection reagent (Perkin Elmer) was added to the reaction mixture and incubated at room temperature in the dark for 120 minutes. The Alphascreen signal generated by the reaction was detected on the Envision Plate Reader Inhibition data were calculated from an Alphascreen signal generated by the no protein control reactions for 100% inhibition and vehicle-only reactions for 0% inhibition. The final concentration of reagents in the assay was 50 nM His-BIR2 (124-240/C202A/C213G), 50 nM.
Biotinylated SMAC peptide, 4 μg/mL Alphascreen detection reagents, and 0.5% DMSO. Dose response curves were generated to determine the concentration required for inhibiting 50% of the activity (IC50). Compounds were dissolved at 10 mM in dimethylsulfoxide (DMSO) and evaluated at eleven concentrations. IC50 values were derived by non-linear regression analysis.

Sequence of XIAP BIR2-3 (His-BIR2-3 (125-356, C202A/C213G, XIAP)) (P98170 whole entry C202A/C213G, looked up): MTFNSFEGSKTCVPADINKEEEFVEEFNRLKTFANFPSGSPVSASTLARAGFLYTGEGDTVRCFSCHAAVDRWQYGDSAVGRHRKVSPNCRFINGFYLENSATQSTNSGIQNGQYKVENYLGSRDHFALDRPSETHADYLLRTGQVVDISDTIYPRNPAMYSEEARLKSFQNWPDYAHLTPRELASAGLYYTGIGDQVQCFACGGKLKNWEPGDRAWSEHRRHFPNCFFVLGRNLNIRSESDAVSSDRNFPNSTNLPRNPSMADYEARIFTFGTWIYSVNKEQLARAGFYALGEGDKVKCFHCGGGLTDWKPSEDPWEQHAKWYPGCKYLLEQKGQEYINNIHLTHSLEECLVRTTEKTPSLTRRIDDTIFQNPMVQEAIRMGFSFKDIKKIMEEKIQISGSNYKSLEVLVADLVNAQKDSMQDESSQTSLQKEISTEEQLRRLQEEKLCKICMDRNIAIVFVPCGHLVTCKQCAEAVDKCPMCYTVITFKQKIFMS
Sequence of XIAP BIR3 (His-BIR3 (241-356, XIAP)) (P98170 whole entry, looked up): as the sequence (P98170 whole entry C202A/C213G, looked up) above, with A202C, G213C counted along it
Sequence of XIAP BIR2 (His-BIR2 (124-240/C202A/C213G)) (P98170 whole entry C202A/C213G, looked up): as the sequence (P98170 whole entry C202A/C213G, looked up) above
Sequence of XIAP BIR3 (N-His-Tb-BIR3(241-356, XIAP)) (P98170 whole entry, looked up): as the sequence (P98170 whole entry C202A/C213G, looked up) above, with A202C, G213C counted along it

SMILES	IC50 [1]	IC50 [2]	IC50 [3]	IC50 [4]
CN[C@@H](C)C(=O)N[C@@H](Cc1ccc(C(=O)N[C@H]2C[C@@H](C(=O)N[C@@H]3CCCc4ccccc43)N(C(=O)[C@@H](NC(=O)[C@H](C)NC)C(C)(C)C)C2)cc1)C(=O)N1C[Si](C)(C)C[C@H]1C(=O)N[C@@H]1CCCc2ccccc21 [Example 10, (R)-1-((S)-3-(4-(((3S,5S)-1-((S)-3,3-dimethyl-2-((S)-2-(methylamino)propanamido)butanoyl)-5-(((R)-1,2,3,4-tetrahydronaphthalen-1-yl)carbamoyl)pyrrolidin-3-yl)carbamoyl)phenyl)-2-((S)-2-(methylamino)propanamido)propanoyl)-3,3-dimethyl-N-((R)-1,2,3,4-tetrahydronaphthalen-1-yl)-1,3-azasilolidine-5-carboxamide]	0.008 µM	0.005 µM	–	–
CN[C@@H](C)C(=O)NC(Cc1ccc(C(=O)Nc2ccc(C(=O)N[C@H]3C[C@@H](C(=O)NC4CCCc5ccccc54)N(C(=O)[C@@H](NC(=O)[C@H](C)NC)C(C)(C)C)C3)cc2)cc1)C(=O)N1C[Si](C)(C)C[C@H]1C(=O)NC1CCCc2ccccc21 (stereo partly drawn) [Example 4]	0.014 µM	0.004 µM	–	–
CN[C@@H](C)C(=O)N[C@@H](Cc1ccc(NC(=O)N[C@H]2C[C@@H](C(=O)N[C@@H]3CCCc4ccccc43)N(C(=O)[C@@H](NC(=O)[C@H](C)NC)C(C)(C)C)C2)cc1)C(=O)N1C[Si](C)(C)C[C@H]1C(=O)N[C@@H]1CCCc2ccccc21 [Example 2, (R)-1-((S)-3-(4-(3-((3S,5S)-1-((S)-3,3-Dimethyl-2-((S)-2-(methylamino)propanamido)butanoyl)-5-(((R)-1,2,3,4-tetrahydronaphthalen-1-yl)carbamoyl)pyrrolidin-3-yl)ureido)phenyl)-2-((S)-2-(methylamino)propanamido)propanoyl)-3,3-dimethyl-N—((R)-1,2,3,4-tetrahydronaphthalen-1-yl)-1,3-azasilolidine-5-carboxamide]	0.016 µM	0.006 µM	–	–
CN[C@@H](C)C(=O)NC(Cc1ccc(NC(=O)c2ccc(CO[C@H]3C[C@@H](C(=O)NC4CCCc5ccccc54)N(C(=O)[C@@H](NC(=O)[C@H](C)NC)C(C)(C)C)C3)cc2)cc1)C(=O)N1C[Si](C)(C)C[C@H]1C(=O)NC1CCCc2ccccc21 (stereo partly drawn) [Example 3, (R)-1-((S)-3-(4-(4-((((3S,5S)-1-((S)-3,3-Dimethyl-2-(S)-2-(methylamino)propanamido)butanoyl)-5-(((R)-1,2,3,4-tetrahydronaphthalen-1-yl)carbamoyl)pyrrolidin-3-yl)oxy)methyl)benzamido)phenyl)-(2-((S)-2-(methylamino)propanamido)propanoyl)-3,3-dimethyl-N—((R)-1,2,3,4-tetrahydronaphthalen-1-yl)-1,3-azasilolidine-5-carboxamide]	0.014 µM	0.005 µM	–	–
CN[C@@H](C)C(=O)NC(Cc1ccc(-c2ccc(C(=O)NC3C[C@@H](C(=O)NC4CCCc5ccccc54)N(C(=O)[C@@H](NC(=O)[C@H](C)NC)C(C)(C)C)C3)cc2)cc1)C(=O)N1C[Si](C)(C)C[C@H]1C(=O)NC1CCCc2ccccc21 (stereo partly drawn) [Example 7]	0.093 µM	0.307 µM	–	–
CN[C@@H](C)C(=O)N[C@@H](Cc1ccc(C#Cc2ccc(C(=O)N[C@H]3C[C@@H](C(=O)N[C@@H]4CCCc5ccccc54)N(C(=O)[C@@H](NC(=O)[C@H](C)NC)C(C)(C)C)C3)cc2)cc1)C(=O)N1C[Si](C)(C)C[C@H]1C(=O)N[C@@H]1CCCc2ccccc21 [Example 5, (R)-1-((S)-3-(4-((4-(((3S,5S)-1-((S)-3,3-Dimethyl-2-((S)-2-(methylamino)propanamido)butanoyl)-5-(((R)-1,2,3,4-tetrahydronaphthalen-1-yl)carbamoyl)pyrrolidin-3-yl)carbamoyl)phenyl)ethynyl)phenyl)-2-((S)-2-(methylamino)propanamido)propanoyl)-3,3-dimethyl-N—((R)-1,2,3,4-tetrahydronaphthalen-1-yl)-1,3-azasilolidine-5-carboxamide]	0.103 µM	0.341 µM	–	–
CN[C@@H](C)C(=O)NC(Cc1ccc(NC(=O)c2ccc(C(=O)N[C@H]3C[C@@H](C(=O)NC4CCCc5ccccc54)N(C(=O)[C@@H](NC(=O)[C@H](C)NC)C(C)(C)C)C3)cc2)cc1)C(=O)N1C[Si](C)(C)C[C@H]1C(=O)NC1CCCc2ccccc21 (stereo partly drawn) [Example 1]	0.012 µM	0.004 µM	–	–
CC[C@H](NC)C(=O)N[C@@H](Cc1ccc(NC(=O)c2ccc(C(=O)N[C@H]3C[C@@H](C(=O)N[C@@H]4CCCc5ccccc54)N(C(=O)[C@@H](NC(=O)[C@H](C)NC)C(C)(C)C)C3)cc2)cc1)C(=O)N1C[Si](C)(C)C[C@H]1C(=O)N[C@@H]1CCCc2ccccc21 [Example 11, N1-((3S,5S)-1-((S)-3,3-dimethyl-2-((S)-2-(methylamino)propanamido)butanoyl)-5-(((R)-1,2,3,4-tetrahydronaphthalen-1-yl)carbamoyl)pyrrolidin-3-yl)-N4-(4-((S)-3-((R)-3,3-dimethyl-5-(((R)-1,2,3,4-tetrahydronaphthalen-1-yl)carbamoyl)-1,3-azasilolidin-1-yl)-2-((S)-2-(methylamino)butanamido)-3-oxopropyl)phenyl)terephthalamide]	0.03 µM	0.006 µM	–	–
CN[C@@H](C)C(=O)N[C@@H](Cc1ccc(C#CC(=O)N[C@H]2C[C@@H](C(=O)N[C@@H]3CCCc4ccccc43)N(C(=O)[C@@H](NC(=O)[C@H](C)NC)C(C)(C)C)C2)cc1)C(=O)N1C[Si](C)(C)C[C@H]1C(=O)N[C@@H]1CCCc2ccccc21 [Example 8, (R)-1-((S)-3-(4-(3-(((3S,5S)-1-((S)-3,3-Dimethyl-2-((S)-2-(methylamino)propanamido)butanoyl)-5-(((R)-1,2,3,4-tetrahydronaphthalen-1-yl)carbamoyl)pyrrolidin-3-yl)amino)-3-oxoprop-1-yn-1-yl)phenyl)-2-((S)-2-(methylamino)propanamido)propanoyl)-3,3-dimethyl-N—((R)-1,2,3,4-tetrahydronaphthalen-1-yl)-1,3-azasilolidine-5-carboxamide]	0.003 µM	0.004 µM	–	–
CN[C@@H](C)C(=O)N[C@H](C(=O)N1C[C@@H](NC(=O)c2ccc(CN(C(=O)[C@@H]3C[Si](C)(C)CN3C(=O)[C@@H](NC(=O)[C@H](C)NC)C(C)(C)C)[C@H](C)c3cccc(F)c3F)cc2)C[C@H]1C(=O)N[C@@H]1CCCc2ccccc21)C(C)(C)C [Example 12, (R)-N-((R)-1-(2,3-Difluorophenyl)ethyl)-1-((S)-3,3-dimethyl-2-((S)-2-(methylamino)propanamido)butanoyl)-N-(4-(((3S,5S)-1-((S)-3,3-dimethyl-2-((S)-2-(methylamino)propanamido)butanoyl)-5-(((R)-1,2,3,4-tetrahydronaphthalen-1-yl)carbamoyl)pyrrolidin-3-yl)carbamoyl)benzyl)-3,3-dimethyl-1,3-azasilolidine-5-carboxamide]	–	–	0.17 µM	0.59 µM
CN[C@@H](C)C(=O)N[C@@H](Cc1ccc(CCc2ccc(C(=O)N[C@H]3C[C@@H](C(=O)N[C@@H]4CCCc5ccccc54)N(C(=O)[C@@H](NC(=O)[C@H](C)NC)C(C)(C)C)C3)cc2)cc1)C(=O)N1C[Si](C)(C)C[C@H]1C(=O)N[C@@H]1CCCc2ccccc21 [Example 6, (R)-1-((S)-3-(4-(4-(((3S,5S)-1-((S)-3,3-Dimethyl-2-((S)-2-(methylamino)propanamido)butanoyl)-5-(((R)-1,2,3,4-tetrahydronaphthalen-1-yl)carbamoyl)pyrrolidin-3-yl)carbamoyl)phenethyl)phenyl)-2-((S)-2-(methylamino)propanamido)propanoyl)-3,3-dimethyl-N—((R)-1,2,3,4-tetrahydronaphthalen-1-yl)-1,3-azasilolidine-5-carboxamide]	0.084 µM	0.205 µM	–	–
CN[C@@H](C)C(=O)N[C@H](C(=O)N1C[C@@H](NC(=O)c2ccc(CN(C(=O)[C@@H]3C[Si](C)(C)CN3C(=O)[C@@H](NC(=O)[C@H](C)NC)C(C)(C)C)[C@H](C)c3ccccc3F)cc2)C[C@H]1C(=O)N[C@@H]1CCCc2ccccc21)C(C)(C)C [Example 9, (R)-1-((S)-3,3-Dimethyl-2-((S)-2-(methylamino)propanamido)butanoyl)-N-(4-(((3S,5S)-1-((S)-3,3-dimethyl-2-((S)-2-(methylamino)propanamido)butanoyl)-5-(((R)-1,2,3,4-tetrahydronaphthalen-1-yl)carbamoyl)pyrrolidin-3-yl)carbamoyl)benzyl)-N—((R)-1-(2-fluorophenyl)ethyl)-3,3-dimethyl-1,3-azasilolidine-5-carboxamide]	0.052 µM	0.009 µM	–	–
